Measurements taken from US10392346B2, “Kinase inhibitors” (Topivert Pharma Limited, priority 2014, dated 2019).
Counter-ions that a name gives are not always drawn.

Experiments:
[1] = test system: Jurkat cells; experiment: Cell cytotoxicity assay (assay r); assay type: cell-based, human; conditions: 24 hours
Procedure: 1×10^5 Jurkat cells (immortalised human T lymphocytes) are added to the appropriate number of wells of a 96 well plate in 100 μL of media (RPMI supplemented with 10% foetal bovine serum). 1 μL of DMSO control (final concentration 1.0% v/v) or test compound (final concentration 20, 5 or 1 μg/mL) is added to the wells and incubated at 37° C., 5% CO2. After 24 hours, the plate is centrifuged at 1200 rpm for 3 minutes and the supernatant discarded. Cells are then resuspended in 150 μL (final concentration 7.5 μg/mL) of propidium iodide (PI) in PBS and incubated at 37° C., 5% CO2 for 15 minutes. After 15 minutes, cells are analysed by flow cytometry (BD accuri) using the FL3 window. The % viability is calculated as the % of cells that are PI negative in the test wells normalised to the DMSO control.

[2] = test system: Crohn's patients; conditions: transient, baseline by week 8; cited from earlier work
[3] = test system: patients with severe Crohn's disease; conditions: over 8 weeks; cited from earlier work
[4] = test system: LPS-stimulated rats; experiment: Endotoxin-induced uveitis in rats (assay vi); assay type: in vivo, rat; conditions: rats treated with intravitreal endotoxin LPS
Procedure: Male, Lewis rats (6-8 weeks old, Charles River UK Limited) are housed in cages of 3 at 19-21° C. with a 12 h light/dark cycle (07:00/19:00) and fed a standard diet of rodent chow and water ad libitum. Non-fasted rats are weighed, individually identified on the tail with a permanent marker, and receive a single intravitreal administration into the right vitreous humor (5 μL dose volume) of 100 ng/animal of LPS (Escherichia coli 0111:B4 prepared in PBS, Sigma Aldrich, UK) using a 32-gauge needle. Untreated rats are injected with PBS. Test compound or vehicle (4% polyoxyl 40 stearate, 4% mannitol in PBS (pH 7.4)) are administered by the topical route onto the right eye (10 μL) of animals 1 hour prior to LPS, at the time of LPS administration, and 1, 2 and 4 hours post LPS administration. Before administration, the solution to be administered is sonicated to ensure a clear solution. 6 hours after LPS dosing, animals are euthanized by overdose with pentobarbitone (via cardiac puncture) Immediately after euthanasia, 10 μL of aqueous humor is collected from the right eye of the rats by puncture of the anterior chamber using a 32 gauge needle under a surgical microscope. The aqueous humor is diluted in 20 μL of PBS and total cell counts are measured immediately using a Countess automated cell counter (Invitrogen). […]

[5] = Stability of pharmaceutical formulations; assay type: physicochemical; conditions: for Purity (%) at week n = 4: 4 weeks
Procedure: The samples were sonicated to achieve clear solutions having the following properties: Osmolality (mOsm/kg): 310 (Na), 314 (HCl); pH: 7.00 (Na), 7.05 (HCl). 0.5 mL of the stock solutions were diluted to 1 mL with 20% DMSO in water & injected for purity analysis by HPLC. The remaining stock solutions were then split into aliquots of 0.5 mL in HPLC vials, and stored at various conditions in duplicate. Samples were stored at 5 and 25° C., before being analysed by HPLC at 1, 2 and 4 weeks. Separate samples were stored at 40° C. and analysed at 4 weeks.

[6] = test system: eyes of albino New Zealand White rabbits; conditions: Phase 1, one treatment day, 0.1 and 1.0 mg/mL
[7] = test system: Salmonella typhimurium, strains TA1535, TA1537, TA98 and TA100; experiment: Bacterial reverse mutation screen (plate incorporation); conditions: for limit of solubility in the mutation test: all strains; for limit of solubility in the mutation test / mutagenic effects (revertant numbers): presence and absence of S-9 mix; for toxicity to the bacteria (mean colony count): at 500-5000 μg/plate in some strains
[8] = test system: Escherichia coli, WP2 uvrA; experiment: as above; conditions: for mutagenic effects (revertant numbers): presence and absence of S-9 mix
[9] = test system: non-mutant kinases; experiment: KinomeScan selectivity scores; assay type: binding; conditions: for KinomeScan Selectivity Score S(1): kinases with % Ctrl <1 / kinases tested; for KinomeScan Selectivity Score S(10): kinases with % Ctrl <10 / kinases tested; for kinase selectivity compared to the Reference Compound: KINOMEscan selectivity scores
Text: These assays may be conducted by DiscoverX (formerly Ambit; San Diego, Calif.).

[10] = Hydrolytic stability study; assay type: physicochemical; conditions: 1 mg/mL; for % Parent Remaining: DMSO/water (3:1)
Procedure: Chemical stability of compounds of the invention was assessed in a mixture of DMSO and water (3:1) at a test compound concentration of 1 mg/mL.
General HPLC Procedure • Agilent, Waters X-Select C18, 2.5 μm, 4.6×30 mm column, 4 min method, 5-95% MeCN/water (0.1% formic acid). Flow rate 2.5 mL/min. Column Oven Temperature 40° C. Detection 254 nm.
Sample Preparation • A 1.0 mg sample of test compound was dissolved in 750 μL of DMSO. Water (250 μL) was added slowly, ensuring no precipitation occurred.
Recording Stability • A 50 μL aliquot of the test solution was removed and analysed in duplicate by 5 μL HPLC injections. The peak area for the test compound was recorded following manual integration of the corresponding UV trace. • The test solution was heated to 60° C., with stirring, and 50 μL aliquots removed for HPLC analysis at 5 and 24 h timepoints.

[11] = test system: rheumatoid arthritis patients; conditions: cited from earlier work
[12] = 60° C., 24 h timepoint (1429-1450 min)

COc1cc(Nc2cc(Oc3ccc(NC(=O)Nc4cc(C(C)(C)C)cc(NS(C)(=O)=O)c4OC)c4ccccc34)ccn2)ccc1C(=O)NC[C@@H]1O[C@H](CO)[C@@H](O)[C@H](O)[C@H]1O [17(co), 4-((4-((4-(3-(5-(tert-Butyl)-2-methoxy-3-(methylsulfonamido)phenyl)ureido)naphthalen-1-yl)oxy)pyridin-2-yl)amino)-2-methoxy-N-(((2S,3R,4R,5S,6R)-3,4,5-trihydroxy-6-(hydroxymethyl)tetrahydro-2H-pyran-2-yl)methyl)benzamide]
% Viability at 1 μg/mL [1]: 74.3%

Cc1ccc(-n2nc(C(C)(C)C)cc2NC(=O)Nc2ccc(OCCN3CCOCC3)c3ccccc23)cc1 [BIRB796]
clinical benefit (C-reactive protein levels) [2]: improvement in C-reactive protein levels

C/C(=N\N=C(N)N)c1cc(NC(=O)CCCCCCCCC(=O)Nc2cc(/C(C)=N/N=C(N)N)cc(/C(C)=N/N=C(N)N)c2)cc(/C(C)=N/N=C(N)N)c1.Cl.Cl.Cl.Cl [CNI-1493]
clinical score [3]: significant improvement in clinical score

COc1cc(Nc2cc(Oc3ccc(NC(=O)Nc4cc(C(C)(C)C)cc(NS(C)(=O)=O)c4OC)c4ccccc34)ccn2)ccc1C(=O)O [Example 1, 4-((4-((4-(3-(5-(tert-Butyl)-2-methoxy-3-(methylsulfonamido)phenyl)ureido)naphthalen-1-yl)oxy)pyridin-2-yl)amino)-2-methoxybenzoic acid]
cellular infiltration (cell counts) in the eyes [4]: significantly and dose-dependently reduced | cytokine IL-1β levels in anterior and posterior segments of the eyes [4]: significantly and dose-dependently reduced | stability in solution ([5]; 1 mg/mL Na and HCl salts, 10 mM pH 7.2 phosphate buffer, 4.5% mannitol, 3% polyoxyl 40 stearate, 5° C., up to 4 weeks): stable | ocular reactions versus vehicle controls [6]: no differences in the frequency, severity and incidence | limit of solubility in the mutation test [7]: 1500 μg/plate | toxicity to the bacteria (mean colony count) [7]: reduction in the mean colony count | mutagenic effects (revertant numbers) [7]: absence of any mutagenic effects | mutagenic effects (revertant numbers) [8]: absence of any mutagenic effects

COc1cc(Nc2cc(Oc3ccc(NC(=O)Nc4cc(C(C)(C)C)cc(NS(C)(=O)=O)c4OC)c4ccccc34)ccn2)ccc1C(=O)O.Cl [Example 1, hydrochloride salt, 4-((4-((4-(3-(5-(tert-butyl)-2-methoxy-3-(methylsulfonamido)phenyl)ureido)naphthalen-1-yl)oxy)pyridin-2-yl)amino)-2-methoxybenzoic acid, hydrochloride salt]
Purity (%) at week n = 2 ([5]; 1 mg/mL buffered solution stored at 5° C., 2 weeks, duplicate samples, hydrochloride salt): 98.0% | Purity (%) at week n = 4 ([5]; 1 mg/mL buffered solution stored at 5° C., duplicate samples, hydrochloride salt): 98.0% | Purity (%) at week n = 1 ([5]; 1 mg/mL buffered solution stored at 25° C., 1 week, duplicate samples): 98.0%

COc1cc(Nc2cc(Oc3ccc(NC(=O)Nc4cc(C(C)(C)C)cc(NS(C)(=O)=O)c4OC)c4ccccc34)ccn2)ccc1C(=O)O [Example 1, sodium salt]
Purity (%) at week n = 4 ([5]; 1 mg/mL buffered solution stored at 40° C., duplicate samples): 76.0%

COc1cc(Nc2cc(Oc3ccc(NC(=O)Nc4cc(C(C)(C)C)cc(NS(C)(=O)=O)c4OC)c4ccccc34)ccn2)cc(OC)c1C(=O)NCCOCCOCCO [Example 36, 4-((4-((4-(3-(5-(tert-Butyl)-2-methoxy-3-(methylsulfonamido)phenyl)ureido)naphthalen-1-yl)oxy)pyridin-2-yl)amino)-N-(2-(2-(2-hydroxyethoxy)ethoxy)ethyl)-2,6-dimethoxybenzamide]
KinomeScan Selectivity Score S(1) ([9]; 50 nM): 0.002 | KinomeScan Selectivity Score S(10) ([9]; 50 nM): 0.050 | KinomeScan Selectivity Score S(1) ([9]; 500 nM): 0.079 | kinase selectivity compared to the Reference Compound [9]: improved selectivities

COc1cc(Nc2cc(Oc3ccc(NC(=O)Nc4cc(C(C)(C)C)cc(NS(C)(=O)=O)c4OC)c4ccccc34)ccn2)ccc1P(C)(=O)O [Example 44, (4-((4-((4-(3-(5-(tert-Butyl)-2-methoxy-3-(methylsulfonamido)phenyl)ureido)naphthalen-1-yl)oxy)pyridin-2-yl)amino)-2-methoxyphenyl)(methyl)phosphinic acid]
% Parent Remaining [10, 12]: 98% | % Parent Remaining ([10]; time 0 min): 100% | limit of solubility in the mutation test [7]: 5000 μg/plate | toxicity to the bacteria (mean colony count) [7]: reduction in the mean colony count | mutagenic effects (revertant numbers) [7]: absence of any mutagenic effects | toxicity to the bacteria (mean colony count) ([8]; 5000 μg/plate, absence of S-9 mix): reduction in the mean colony count | mutagenic effects (revertant numbers) [8]: absence of any mutagenic effects

COc1cc(Nc2cc(Oc3ccc(NC(=O)Nc4cc(C(C)(C)C)cc(NS(C)(=O)=O)c4OC)c4ccccc34)ccn2)cc(OC)c1C(=O)NCCOCCOCCOP(=O)(O)O [Example 47, 2-(2-(2-(4-((4-((4-(3-(5-(tert-butyl)-2-methoxy-3-(methylsulfonamido)phenyl)ureido)-naphthalen-1-yl)oxy)pyridin-2-yl)amino)-2,6-dimethoxybenzamido)ethoxy)ethoxy)ethyl dihydrogen phosphate]
KinomeScan Selectivity Score S(10) ([9]; 50 nM): 0.042 | KinomeScan Selectivity Score S(1) ([9]; 500 nM): 0.074 | kinase selectivity compared to the Reference Compound [9]: improved selectivities | % Parent Remaining [10, 12]: 89% | % Parent Remaining ([10]; time 0 min): 100%

COc1cc(Nc2ncc(F)c(Nc3ccc4c(n3)N(COP(=O)(O)O)C(=O)C(C)(C)O4)n2)cc(OC)c1OC [Fostamatinib]
clinical outcome and serum IL-6 and MMP-3 [11]: improved clinical outcome and reduced serum levels of IL-6 and MMP-3

C#Cc1cc(Nc2nccc(Oc3ccc(NC(=O)Nc4cc(C(C)C)nn4-c4ccc(C)cc4)c4ccccc34)n2)cc(C(=O)NCCN2CCOCC2)c1 [Reference Compound B, 3-ethynyl-5-((4-((4-(3-(3-isopropyl-1-(p-tolyl)-1H-pyrazol-5-yl)ureido)naphthalen-1-yl)oxy)pyrimidin-2-yl)amino)-N-(2-morpholinoethyl)benzamide, reference compound]
decomposition (hydrolytic stability) ([10]; DMSO and water (3:1), 60° C., 5 and 24 h): underwent substantial decomposition | % Parent Remaining ([10]; 60° C., 5 h timepoint (297-317 min)): 79% | % Parent Remaining [10, 12]: 18% | % Parent Remaining ([10]; time 0 min): 100%
